Test results reported in patent publication US8952147B2, “Conjugates, preparation thereof, and therapeutic use thereof” (Sanofi, priority 2009, dated 2015).

How the values were obtained:
Type in all cases: cell-based
[1] = system: HCT116 cells; experiment: Inhibition of proliferation of HCT116 cells by the cytotoxic agents (14C-thymidine incorporation); details: Homo sapiens, HCT-116, 3 days culture, 14C-thymidine incorporation at 96 hours
Description: (§1) Evaluation of the inhibition of proliferation of MDA-MB-231, MDA-A1 and HCT116 cell lines by the cytotoxic agents, study performed on the compounds of formula (II) of the type SZa with Za═SMe or of the type —C(═O)—ZbRb with ZbRb=OMe or OCH2—CH═CH2 The MDA-MB-231, MDA-A1 or HCT116 cells in their exponential growth phase are trypsinized and resuspended in their respective culture medium (DMEM/F12 Gibco #21331, 10% FCS Gibco #10500-056, […] Gibco #25030 for the MDA cells; DMEM Gibco #11960, 10% FCS Gibco #10500-056, 2 mM glutamine Gibco #25030 for the HCT116 cells). The cell suspension is seeded in Cytostar 96-well culture plates (GE Healthcare Europe, #RPNQ0163) in the whole culture medium containing serum at a density of 5000 cells/well (MDA-MB-231, MDA-A1, HCT116). After incubation for 4 hours, successive dilutions of the cryptophycin derivatives are added to the wells at concentrations decreasing from 10^−7 to 10^−12 M (in triplicate for each concentration). The cells are cultured for 3 days at 37° C. under an atmosphere containing 5% CO2 in the presence of the cytotoxic agents. On the 4th day, 10 μl of a ^14C-thymidine solution (0.1 μCi/well, Perkin Elmer #NEC56825000) are added to each well. The incorporation of ^14C-thymidine is measured 96 hours after the start of the experiment using a microbeta radioactivity counter (Perkin Elmer). The data are expressed in the form of a percentage of survival by determining the ratio between the reduced count obtained with the cells treated with cytotoxic agent and the count obtained with the cells of the control wells (treated with the culture medium alone).

[2] = system: MDA-MB-231 cells; experiment: Inhibition of proliferation of MDA-MB-231 cells by the cytotoxic agents (14C-thymidine incorporation); details: Homo sapiens, 3 days culture, 14C-thymidine incorporation at 96 hours
Description: as §1

[3] = system: MDA-A1 cells; experiment: Inhibition of proliferation of MDA-A1 cells by the cytotoxic agents (14C-thymidine incorporation); details: 3 days culture, 14C-thymidine incorporation at 96 hours
Description: as §1

Row | SMILES | IC50 [1] [nM] | IC50 [2] [nM] | IC50 [3] [nM]
1 | COc1ccc(C[C@H]2NC(=O)/C=C/C[C@@H]([C@H](C)[C@H]3O[C@@H]3c3ccc(CO)cc3)OC(=O)[C@H](CC(C)C)OC(=O)[C@H](C)CNC2=O)cc1Cl [Compound 8, reference compound] | 0.052 | 0.104 | 0.828
2 | COc1ccc(C[C@H]2NC(=O)/C=C/C[C@@H]([C@H](C)[C@H]3O[C@@H]3c3ccc(CN)cc3)OC(=O)[C@H](CC(C)C)OC(=O)C(C)(C)CNC2=O)cc1Cl [Compound 77, (E)-(3S,10R,16S)-16-{(S)-1-[(2R,3R)-3-(4-Aminomethylphenyl)oxiranyl]ethyl}-10-(3-chloro-4-methoxybenzyl)-3-isobutyl-6,6-dimethyl-1,4-dioxa-8,11-diazacyclohexadec-13-ene-2,5,9,12-tetraone] | 0.105 | 0.17 | 15.1
3 | C=CCOC(=O)CN1CCN(Cc2ccc([C@H]3O[C@@H]3[C@@H](C)[C@@H]3C/C=C/C(=O)N[C@H](Cc4ccc(OC)c(Cl)c4)C(=O)NCC(C)(C)C(=O)O[C@@H](CC(C)C)C(=O)O3)cc2)CC1 [Compound 40, Allyl (4-{4-[(2R,3R)-3-((S)-1-{(E)-(3S,10R,16S)-10-[3-chloro-4-methoxybenzyl]-3-isobutyl-6,6-dimethyl-2,5,9,12-tetraoxo-1,4-dioxa-8,11-diazacyclohexadec-13-en-16-yl}ethyl)-oxiranyl]benzyl}piperazin-1-yl)acetate] | 0.12 | 0.293 | 1.58
4 | COc1ccc(C[C@H]2NC(=O)/C=C/C[C@@H]([C@H](C)[C@H]3O[C@@H]3c3ccc(CNCC(C)(C)SSC)cc3)OC(=O)[C@H](CC(C)C)OC(=O)C(C)(C)CNC2=O)cc1Cl [Compound 13, (E)-(3S,10R,16S)-10-(3-Chloro-4-methoxybenzyl)-3-isobutyl-16-[(S)-1-((2R,3R)-3-{4-[(2-methyl-2-methyldisulfanylpropylamino)methyl]phenyl}oxiranyl)ethyl]-6,6-dimethyl-1,4-dioxa-8,11-diazacyclohexadec-13-ene-2,5,9,12-tetraone] | 0.336 | 0.529 | 9.76
5 | COc1ccc(C[C@H]2NC(=O)/C=C/C[C@@H]([C@H](C)[C@@H]3O[C@H]3c3ccc(CO)cc3)OC(=O)[C@H](CC(C)C)OC(=O)C(C)(C)CNC2=O)cc1Cl [Compound 57] | 1.13 | 1.19 | 29
6 | COc1ccc(C[C@H]2NC(=O)/C=C/C[C@@H]([C@H](C)[C@H]3O[C@@H]3c3ccc(CO)cc3)OC(=O)[C@H](CC(C)C)OC(=O)C(C)(C)CNC2=O)cc1Cl [Compound 1, reference compound] | 0.032 | 0.041 | 1.07
7 | COC(=O)CCCc1cn(Cc2ccc([C@H]3O[C@@H]3[C@@H](C)[C@@H]3C/C=C/C(=O)N[C@H](Cc4ccc(OC)c(Cl)c4)C(=O)NCC(C)(C)C(=O)O[C@@H](CC(C)C)C(=O)O3)cc2)nn1 [Compound 62, Methyl (1-{4-[(2R,3R)-3-((S)-1-{(E)-(3S,10R,16S)-10-[3-chloro-4-methoxybenzyl]-3-isobutyl-6,6-dimethyl-2,5,9,12-tetraoxo-1,4-dioxa-8,11-diazacyclohexadec-13-en-16-yl}ethyl)-oxiranyl]benzyl}-1H-1,2,3-triazol-4-yl)butanoate] | 0.035 | 0.095 | 10.9
8 | COc1ccc(C[C@H]2NC(=O)/C=C/C[C@@H]([C@H](C)[C@H]3O[C@@H]3c3ccc(CN4CCN(CC(C)(C)SSC)CC4)cc3)OC(=O)[C@H](CC(C)C)OC(=O)C(C)(C)CNC2=O)cc1Cl [Compound 19, (E)-(3S,10R,16S)-10-(3-Chloro-4-methoxybenzyl)-3-isobutyl-6,6-dimethyl-16-[(S)-1-((2R,3R)-3-{4-[4-(2-methyl-2-methyldisulfanylpropyl)piperazin-1-ylmethyl]phenyl}oxiranyl)ethyl]-1,4-dioxa-8,11-diazacyclohexadec-13-ene-2,5,9,12-tetraone] | 0.152 | 0.149 | 2.71
9 | C=CCOC(=O)CCOCCOCCOCCOCCNCc1ccc([C@H]2O[C@@H]2[C@@H](C)[C@@H]2C/C=C/C(=O)N[C@H](Cc3ccc(OC)c(Cl)c3)C(=O)NCC(C)(C)C(=O)O[C@@H](CC(C)C)C(=O)O2)cc1 [Compound 44, Allyl (2-{2-[2-(2-{4-[(2R,3R)-3-((S)-1-{(E)-(3S,10R,16S)-10-[3-chloro-4-methoxy-benzyl]-3-isobutyl-6,6-dimethyl-2,5,9,12-tetraoxo-1,4-dioxa-8,11-diazacyclohexadec-13-en-16-yl}ethyl)oxiranyl]benzylamino}ethoxy)ethoxy]ethoxy}ethoxy)propanoate] | 0.135 | 0.156 | 15.6
10 | COc1ccc(C[C@H]2NC(=O)/C=C/C[C@@H]([C@H](C)[C@H]3O[C@@H]3c3ccc(CN4CCN(C(=O)CCC(C)(C)SSC)CC4)cc3)OC(=O)[C@H](CC(C)C)OC(=O)C(C)(C)CNC2=O)cc1Cl [Compound 7, (E)-(3S,10R,16S)-10-(3-Chloro-4-methoxybenzyl)-3-isobutyl-6,6-dimethyl-16-[(S)-1-((2R,3R)-3-{4-[4-(4-methyl-4-methyldisulfanylpentanoyl)piperazin-1-ylmethyl]phenyl}oxiranyl)-ethyl]-1,4-dioxa-8,11-diazacyclohexadec-13-ene-2,5,9,12-tetraone] | 0.315 | 0.303 | 7.95
11 | COc1ccc(C[C@H]2NC(=O)/C=C/C[C@@H]([C@H](C)[C@H]3O[C@@H]3c3ccc(CN(C)CCOCCOCCOCCN(C)CC(C)(C)SSC)cc3)OC(=O)[C@H](CC(C)C)OC(=O)C(C)(C)CNC2=O)cc1Cl [Compound 30] | 0.031 | 0.03 | 11.9
